According to PubChem BioAssay AID1794826:

Molecular target: Sodium/myo-inositol cotransporter 2 (Homo sapiens) (UniProt Q8WWX8)
Experiment: sodium/myo-inositol cotransporter SLC5A11 activation – cell-based, membrane potential dye, HEK-293, SLC5A11 overexpression, dose response (AID 1794826)
Settings: HEK-293 SLC5A11 OE, FLIPR membrane potential dye

Sodium/myo-inositol cotransporter 2 (Homo sapiens), sequence (Q8WWX8 whole entry, looked up): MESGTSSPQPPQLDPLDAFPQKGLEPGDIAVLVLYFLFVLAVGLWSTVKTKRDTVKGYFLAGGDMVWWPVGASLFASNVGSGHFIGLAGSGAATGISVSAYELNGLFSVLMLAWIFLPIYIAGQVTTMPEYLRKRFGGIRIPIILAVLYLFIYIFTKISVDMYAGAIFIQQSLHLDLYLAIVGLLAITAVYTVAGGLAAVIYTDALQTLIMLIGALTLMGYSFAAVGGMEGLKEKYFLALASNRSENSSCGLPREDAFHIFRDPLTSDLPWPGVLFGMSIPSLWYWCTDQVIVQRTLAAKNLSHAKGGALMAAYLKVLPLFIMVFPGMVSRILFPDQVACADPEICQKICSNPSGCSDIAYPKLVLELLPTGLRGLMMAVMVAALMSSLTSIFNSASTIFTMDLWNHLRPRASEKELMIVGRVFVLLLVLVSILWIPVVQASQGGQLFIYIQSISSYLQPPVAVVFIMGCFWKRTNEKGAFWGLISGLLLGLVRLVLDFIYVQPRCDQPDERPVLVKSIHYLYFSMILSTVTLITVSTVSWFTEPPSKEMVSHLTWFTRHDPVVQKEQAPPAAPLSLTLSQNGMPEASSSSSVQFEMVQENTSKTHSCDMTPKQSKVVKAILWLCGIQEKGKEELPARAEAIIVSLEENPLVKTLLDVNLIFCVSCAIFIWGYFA

EC50: 104 µM
SMILES: OC1C(O)C(O)C(O)C(O)C1O (stereo unspecified)
